These results are taken from patent US12371454B2, “Cyclic peptide compound having Kras inhibitory action” (priority 2019, dated 2025).

Positions of bridges follow the written chain, without caps; N, C: chain ends. Non-standard residues stand in square brackets, D forms with d. Residues, ends and D or L forms follow the SMILES beside them. *: point of attachment. hPhe(3-Cl-4-CF3) = N[C@@H](CCc1ccc(C(F)(F)F)c(Cl)c1)C(=O)O; NMePhe(4-CF3) = CN[C@@H](Cc1ccc(C(F)(F)F)cc1)C(=O)O; NMePhe(4-CN) = CN[C@@H](Cc1ccc(C#N)cc1)C(=O)O; 3Oxa8azabicyclo(3.2.1)octane = C1CC2COCC1N2*; NMePhe(4-Cl) = CN[C@@H](Cc1ccc(Cl)cc1)C(=O)O; NMePhe(4-Me) = CN[C@@H](Cc1ccc(C)cc1)C(=O)O; NMeGly(cPent) = CN[C@H](C(=O)O)C1CCCC1; Phe(3-I) = N[C@@H](Cc1cccc(I)c1)C(=O)O; Phe(2-F) = N[C@@H](Cc1ccccc1F)C(=O)O; NMe3Pal = CN[C@@H](Cc1cccnc1)C(=O)O; NMeCha = CN[C@@H](CC1CCCCC1)C(=O)O; NMeGly(cPr) = CN[C@H](C(=O)O)C1CC1; Ala(cPr) = N[C@@H](CC1CC1)C(=O)O; NMeI = CC[C@H](C)[C@H](NC)C(=O)O; NMeD = CN[C@@H](CC(=O)O)C(=O)O; NMeL = CN[C@@H](CC(C)C)C(=O)O; NMeV = CN[C@H](C(=O)O)C(C)C; d(β3hA) = C[C@@H](N)CC(=O)O; dPip = O=C(O)[C@H]1CCCCN1; NMeA = CN[C@@H](C)C(=O)O; NMeAib = CNC(C)(C)C(=O)O; Piperidide = C1CCN(*)CC1; Ac5c = NC1(C(=O)O)CCCC1; Aze = O=C(O)[C@@H]1CCN1; NcPrGly = O=C(O)CNC1CC1; Sar = CNCC(=O)O

The assay deals with T1, Kras and SOS1 (biotin-tagged human Kras loaded with GDP, His-tagged human SOS1) (Homo sapiens, UniProt P01116, G12D).
T1 construct: made in house; host or cells: E. coli (stated for Kras only)
As to the kind of experiment: Protein-protein interaction inhibition between Kras and SOS1 (KrasGl2D-SOS PPI) using AlphaScreen. The conditions noted are these: AlphaScreen; biotin-tagged human Kras loaded with GDP, His-tagged human SOS1; read-out: KRAS G12D-SOS PPI IC50. Type of assay: binding. A digest of the protocol: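 AlphaScreen format: Ni donor beads capture His-SOS1, streptavidin acceptor beads capture biotinylated Kras (E. coli-expressed, GDP-loaded post-purification). Excite 680 nm, read 520-620 nm.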
For orientation: In Alpha technology, singlet oxygen from a donor bead excites a nearby acceptor bead.

T1 sequence (P01116 1-188 isoform P01116-2 G12D): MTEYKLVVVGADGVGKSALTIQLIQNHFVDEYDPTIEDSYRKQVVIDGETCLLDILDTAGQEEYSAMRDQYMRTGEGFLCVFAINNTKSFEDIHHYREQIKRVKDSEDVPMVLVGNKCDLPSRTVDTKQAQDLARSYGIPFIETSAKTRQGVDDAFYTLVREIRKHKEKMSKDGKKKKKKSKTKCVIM

For the compound `CC[C@H](C)[C@@H]1NC(=O)[C@H](CC(C)C)N(C)C(=O)C[C@@H](C)NC(=O)[C@H](C(C)C)N(C)C(=O)C2(CCCC2)NC(=O)[C@@H]2CCCN2C(=O)[C@H](CCc2ccc(C(F)(F)F)c(Cl)c2)NC(=O)CN(C)C(=O)[C@H](CC2CCCCC2)N(C)C(=O)CN(C)C(=O)CN(C2CC2)C1=O` [Compound 542] (cyclo([Ac5c][NMeV][d(β3hA)][NMeL]I[NcPrGly][Sar][NMeCha][Sar][hPhe(3-Cl-4-CF3)]P)), the IC50 (as a rule, the concentration at which inhibition is half-maximal) is 61 nM.
The result for `CC[C@H](C)[C@@H]1NC(=O)[C@H](CC(C)C)N(C)C(=O)C[C@@H](C(=O)N2C3CCC2COC3)N(C)C(=O)[C@H]([C@@H](C)CC)N(C)C(=O)C2(CCCC2)NC(=O)[C@@H]2CCCN2C(=O)[C@H](CCc2ccc(C(F)(F)F)c(Cl)c2)NC(=O)CN(C)C(=O)[C@H](Cc2ccc(C(F)(F)F)cc2)N(C)C(=O)[C@@H]2CCN2C(=O)[C@H](C)N(C)C1=O` [Compound 545] ([NMeL]I[NMeA][Aze][NMePhe(4-CF3)][Sar][hPhe(3-Cl-4-CF3)]P[Ac5c][NMeI][NMeD]-{3Oxa8azabicyclo(3.2.1)octane}; lactam N-11) reads 1.1 nM; that for `CC[C@H](C)[C@@H]1NC(=O)[C@H](C)N(C)C(=O)C[C@@H](C)NC(=O)[C@H](C2CCCC2)N(C)C(=O)C2(CCCC2)NC(=O)[C@@H]2CCCN2C(=O)[C@H](CCc2ccc(C(F)(F)F)c(Cl)c2)NC(=O)CN(C)C(=O)[C@H](Cc2ccc(Cl)cc2)N(C)C(=O)[C@@H]2CCCN2C(=O)CN(C)C1=O` [Compound 549] (cyclo([Ac5c][NMeGly(cPent)][d(β3hA)][NMeA]I[Sar]P[NMePhe(4-Cl)][Sar][hPhe(3-Cl-4-CF3)]P)), 4 nM.
The result for `CC(C)C[C@H]1C(=O)N[C@@H](CC2CC2)C(=O)N(C)CC(=O)N(C)CC(=O)N(C)[C@@H](CC2CCCCC2)C(=O)N(C)CC(=O)N[C@@H](CCc2ccc(C(F)(F)F)c(Cl)c2)C(=O)N2CCC[C@H]2C(=O)NC2(CCCC2)C(=O)N(C)[C@@H](C(C)C)C(=O)N[C@H](C)CC(=O)N1C` [Compound 550] (cyclo([Ac5c][NMeV][d(β3hA)][NMeL][Ala(cPr)][Sar][Sar][NMeCha][Sar][hPhe(3-Cl-4-CF3)]P)) reads 110 nM; that for `CC[C@H](C)[C@@H]1NC(=O)[C@H](C)N(C)C(=O)C[C@@H](C(=O)N2CCCCC2)N(C)C(=O)[C@H](C(C)C)N(C)C(=O)C2(CCCC2)NC(=O)[C@@H]2CCCN2C(=O)[C@H](CCc2ccc(C(F)(F)F)c(Cl)c2)NC(=O)[C@H]2CCCCN2C(=O)[C@H](CC2CCCCC2)N(C)C(=O)[C@@H]2CCN2C(=O)CN(C)C1=O` [Compound 553] ([NMeA]I[Sar][Aze][NMeCha][dPip][hPhe(3-Cl-4-CF3)]P[Ac5c][NMeV][NMeD]-Piperidide; lactam N-11), 27 nM.
The same measure for `CC[C@H](C)[C@@H]1NC(=O)[C@H](CC(C)C)N(C)C(=O)C[C@@H](C(=O)N2CCCCC2)N(C)C(=O)[C@H](CC(C)C)NC(=O)C(C)(C)N(C)C(=O)[C@H](Cc2ccccc2F)NC(=O)[C@H](Cc2cccc(I)c2)NC(=O)CN(C)C(=O)[C@H](Cc2ccc(C)cc2)N(C)C(=O)CN(C)C(=O)CN(C)C1=O` [Compound 556] ([NMeL]I[Sar][Sar][NMePhe(4-Me)][Sar][Phe(3-I)][Phe(2-F)][NMeAib]L[NMeD]-Piperidide; lactam N-11): 30 nM; for `CC[C@H](C)[C@@H]1NC(=O)[C@H](CC(C)C)N(C)C(=O)C[C@@H](C(=O)N(C)C)N(C)C(=O)[C@H]([C@@H](C)CC)N(C)C(=O)[C@H](C)NC(=O)[C@H](Cc2cccnc2)N(C)C(=O)[C@H](CCc2ccc(C(F)(F)F)c(Cl)c2)NC(=O)CN(C)C(=O)[C@H](Cc2ccc(C)cc2)N(C)C(=O)[C@@H]2CCN2C(=O)[C@H](C)N(C)C1=O` [Compound 557] ([NMeL]I[NMeA][Aze][NMePhe(4-Me)][Sar][hPhe(3-Cl-4-CF3)][NMe3Pal]A[NMeI][NMeD]-NMe2; lactam N-11): 4.4 nM.
With `CC[C@H](C)[C@@H]1NC(=O)[C@H](CC(C)C)N(C)C(=O)C[C@@H](C)NC(=O)[C@H](C(C)C)N(C)C(=O)C2(CCCC2)NC(=O)[C@@H]2CCCN2C(=O)[C@H](CCc2ccc(C(F)(F)F)c(Cl)c2)NC(=O)CN(C)C(=O)[C@H](Cc2ccc(C#N)cc2)N(C)C(=O)CN(C)C(=O)CN(C)C1=O` [Compound 564] (cyclo([Ac5c][NMeV][d(β3hA)][NMeL]I[Sar][Sar][NMePhe(4-CN)][Sar][hPhe(3-Cl-4-CF3)]P)), the IC50 was 9.6 nM.
The result for `CC[C@H](C)[C@@H]1NC(=O)[C@H](C2CC2)N(C)C(=O)C[C@@H](C)NC(=O)[C@H](C(C)C)N(C)C(=O)C2(CCCC2)NC(=O)[C@@H]2CCCN2C(=O)[C@H](CCc2ccc(C(F)(F)F)c(Cl)c2)NC(=O)CN(C)C(=O)[C@H](CC2CCCCC2)N(C)C(=O)[C@@H]2CCN2C(=O)[C@H](C)N(C)C1=O` [Compound 565] (cyclo([Ac5c][NMeV][d(β3hA)][NMeGly(cPr)]I[NMeA][Aze][NMeCha][Sar][hPhe(3-Cl-4-CF3)]P)) reads 55 nM.
